# *1 amine or outer side, *2 acyl side, *3 side chain or, on linkers, in order; H or OH if unused. Where a SMILES comes first, the peptide text is derived from it. Side-chain parts run from the residue outwards. [ ]: non-standard residue; d: D form. The star is where a group is joined. C20 diacid = O=C(O)CCCCCCCCCCCCCCCCCCC(=O)*; C18 diacid = O=C(O)CCCCCCCCCCCCCCCCC(=O)*; γGlu = O=C(O)[C@H](CCC(=O)[*:2])N[*:1]; αMeY = C[C@](N)(Cc1ccc(O)cc1)C(=O)O; 4Pal = N[C@@H](Cc1ccncc1)C(=O)O; αMeL = CC(C)C[C@](C)(N)C(=O)O; Iva = CC[C@](C)(N)C(=O)O; AEEA = NCCOCCOCC(=O)O; Aib = CC(C)(N)C(=O)O
# Assays:
# [1] = molecular target: T1, human GLP-1R (Homo sapiens, UniProt P43220); assay: [125I]-GLP-1 binding, SPA with WGA beads, 0.1% bacitracin; conditions: geometric mean, read-out: hGLP1R Ki
# T1 construct: expressed in transfected cells; crude membranes
# T1 sequence (P43220 24-463): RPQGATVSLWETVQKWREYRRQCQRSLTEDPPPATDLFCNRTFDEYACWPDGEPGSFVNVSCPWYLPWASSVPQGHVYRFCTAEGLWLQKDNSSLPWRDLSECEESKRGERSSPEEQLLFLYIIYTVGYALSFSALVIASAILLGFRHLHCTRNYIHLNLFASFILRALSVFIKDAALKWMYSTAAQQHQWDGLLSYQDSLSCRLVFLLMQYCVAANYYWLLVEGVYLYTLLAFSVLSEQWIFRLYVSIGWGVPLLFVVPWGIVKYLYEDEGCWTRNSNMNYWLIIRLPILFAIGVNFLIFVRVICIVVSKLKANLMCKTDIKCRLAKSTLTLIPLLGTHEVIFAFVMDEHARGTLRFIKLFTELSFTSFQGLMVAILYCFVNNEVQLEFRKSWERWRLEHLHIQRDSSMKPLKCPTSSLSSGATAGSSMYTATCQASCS
# How it was run: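 Binding buffer was 25 mM HEPES pH 7.4 with 2.5 mM CaCl2, 1 mM MgCl2, 0.1% (w/v) bacitracin, 0.003% Tween-20 and EDTA-free protease inhibitors. Four-parameter regression gave IC50, converted to Ki (geometric mean, SEM, n independent days).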
# [2] = molecular target: T2, human GIPR (Homo sapiens, UniProt P48546); assay: [125I]-GIP binding, SPA with WGA beads, 0.1% bacitracin; conditions: geometric mean, read-out: hGIPR Ki
# T2 construct: expressed in transfected cells; crude membranes
# T2 sequence (P48546 22-466): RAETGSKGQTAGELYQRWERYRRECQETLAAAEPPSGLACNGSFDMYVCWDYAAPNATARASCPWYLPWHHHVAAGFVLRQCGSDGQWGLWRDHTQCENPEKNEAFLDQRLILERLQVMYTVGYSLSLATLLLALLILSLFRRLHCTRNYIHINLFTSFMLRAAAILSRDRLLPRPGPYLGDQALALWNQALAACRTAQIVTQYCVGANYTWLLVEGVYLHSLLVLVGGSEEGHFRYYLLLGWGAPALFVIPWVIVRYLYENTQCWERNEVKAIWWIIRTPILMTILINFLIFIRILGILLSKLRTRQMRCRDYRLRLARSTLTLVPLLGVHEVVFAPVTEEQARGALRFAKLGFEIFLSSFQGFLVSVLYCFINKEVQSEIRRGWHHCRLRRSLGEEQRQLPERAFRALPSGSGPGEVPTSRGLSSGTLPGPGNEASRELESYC
# How it was run: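 Ki values are geometric means (SEM, n independent days), derived from four-parameter nonlinear regression of IC50. Membranes came from hGIPR-expressing CHO cells.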
compound,measurement,setting,value
CC[C@H](C)[C@H](NC(=O)[C@H](CO)NC(=O)[C@H](Cc1ccc(O)cc1)NC(=O)[C@H](CC(=O)O)NC(=O)[C@H](CO)NC(=O)[C@@H](NC(=O)[C@](C)(CC)NC(=O)[C@@H](NC(=O)CNC(=O)[C@H](CCC(=O)O)NC(=O)C(C)(C)NC(=O)[C@@H](N)Cc1ccc(O)cc1)[C@@H](C)O)[C@@H](C)CC)C(=O)N[C@@](C)(CC(C)C)C(=O)N[C@@H](CC(C)C)C(=O)N[C@@H](CC(=O)O)C(=O)N[C@@H](CCCCN)C(=O)N[C@@H](CCCCNC(=O)COCCOCCNC(=O)COCCOCCNC(=O)CC[C@H](NC(=O)CCCCCCCCCCCCCCCCCCC(=O)O)C(=O)O)C(=O)N[C@@H](Cc1c[nH]cn1)C(=O)N[C@@H](CCC(N)=O)C(=O)NC(C)(C)C(=O)N[C@@H](CC(=O)O)C(=O)N[C@@H](Cc1ccccc1)C(=O)N[C@H](C(=O)N[C@@H](CCC(=O)O)C(=O)N[C@@H](Cc1ccncc1)C(=O)N[C@@H](CC(C)C)C(=O)N[C@@H](CC(C)C)C(=O)N[C@@H](CCC(=O)O)C(=O)N[C@@H](C)C(=O)NCC(=O)N1CCC[C@H]1C(=O)N[C@@H](CO)C(=O)N[C@@H](CO)C(=O)NCC(=O)N[C@@H](C)C(=O)N1CCC[C@H]1C(=O)N1CCC[C@H]1C(=O)N1CCC[C@H]1C(=O)N[C@@H](CO)C(N)=O)C(C)C [Example 88] (H-Y[Aib]EGT[Iva]ISDYSI[αMeL]LDKK([AEEA-AEEA-γGlu-C20 diacid])HQ[Aib]DFVE[4Pal]LLEAGPSSGAPPPS-NH2),Ki,[1],261 nM
same,Ki,[2],0.083 nM
CC[C@H](C)[C@H](NC(=O)[C@H](CC(C)C)NC(=O)[C@@H](NC(=O)CNC(=O)[C@H](CCC(=O)O)NC(=O)C(C)(C)NC(=O)[C@@H](N)Cc1ccc(O)cc1)[C@@H](C)O)C(=O)N[C@@H](CO)C(=O)N[C@@H](CC(=O)O)C(=O)N[C@@H](Cc1ccc(O)cc1)C(=O)N[C@@H](CO)C(=O)N[C@H](C(=O)N[C@@](C)(CC(C)C)C(=O)N[C@@H](CC(C)C)C(=O)N[C@@H](CC(=O)O)C(=O)N[C@@H](CCCCN)C(=O)N[C@@H](CCCCNC(=O)COCCOCCNC(=O)COCCOCCNC(=O)CC[C@H](NC(=O)CCCCCCCCCCCCCCCCCCC(=O)O)C(=O)O)C(=O)N[C@@H](Cc1c[nH]cn1)C(=O)N[C@@H](CCC(N)=O)C(=O)NC(C)(C)C(=O)N[C@@H](CC(=O)O)C(=O)N[C@@H](Cc1ccccc1)C(=O)N[C@H](C(=O)N[C@@H](CCC(=O)O)C(=O)N[C@@H](Cc1ccncc1)C(=O)N[C@@H](CC(C)C)C(=O)N[C@@H](CC(C)C)C(=O)N[C@@H](CCC(=O)O)C(=O)N[C@@H](C)C(=O)NCC(=O)N1CCC[C@H]1C(=O)N[C@@H](CO)C(=O)N[C@@H](CO)C(=O)NCC(=O)N[C@@H](C)C(=O)N1CCC[C@H]1C(=O)N1CCC[C@H]1C(=O)N1CCC[C@H]1C(=O)N[C@@H](CO)C(N)=O)C(C)C)[C@@H](C)CC [Example 89] (H-Y[Aib]EGTLISDYSI[αMeL]LDKK([AEEA-AEEA-γGlu-C20 diacid])HQ[Aib]DFVE[4Pal]LLEAGPSSGAPPPS-NH2),Ki,[1],294 nM
same,Ki,[2],0.072 nM
CC[C@H](C)[C@H](NC(=O)[C@H](Cc1ccccc1)NC(=O)[C@@H](NC(=O)CNC(=O)[C@H](CCC(=O)O)NC(=O)C(C)(C)NC(=O)[C@@H](N)Cc1ccc(O)cc1)[C@@H](C)O)C(=O)N[C@@H](CO)C(=O)N[C@@H](CC(=O)O)C(=O)N[C@@H](Cc1ccc(O)cc1)C(=O)N[C@@H](CO)C(=O)N[C@H](C(=O)N[C@@](C)(CC(C)C)C(=O)N[C@@H](CC(C)C)C(=O)N[C@@H](CC(=O)O)C(=O)N[C@@H](CCCCN)C(=O)N[C@@H](CCCCNC(=O)COCCOCCNC(=O)COCCOCCNC(=O)CC[C@H](NC(=O)CCCCCCCCCCCCCCCCCCC(=O)O)C(=O)O)C(=O)N[C@@H](Cc1c[nH]cn1)C(=O)N[C@@H](CCC(N)=O)C(=O)NC(C)(C)C(=O)N[C@@H](CC(=O)O)C(=O)N[C@@H](Cc1ccccc1)C(=O)N[C@H](C(=O)N[C@@H](CCC(=O)O)C(=O)N[C@@](C)(Cc1ccc(O)cc1)C(=O)N[C@@H](CC(C)C)C(=O)N[C@@H](CC(C)C)C(=O)N[C@@H](CCC(=O)O)C(=O)N[C@@H](C)C(=O)NCC(=O)N1CCC[C@H]1C(=O)N[C@@H](CO)C(=O)N[C@@H](CO)C(=O)NCC(=O)N[C@@H](C)C(=O)N1CCC[C@H]1C(=O)N1CCC[C@H]1C(=O)N1CCC[C@H]1C(=O)N[C@@H](CO)C(N)=O)C(C)C)[C@@H](C)CC [Example 90] (H-Y[Aib]EGTFISDYSI[αMeL]LDKK([AEEA-AEEA-γGlu-C20 diacid])HQ[Aib]DFVE[αMeY]LLEAGPSSGAPPPS-NH2),Ki,[1],102 nM
same,Ki,[2],0.129 nM
CC[C@H](C)[C@H](NC(=O)[C@H](Cc1ccccc1)NC(=O)[C@@H](NC(=O)CNC(=O)[C@H](CCC(=O)O)NC(=O)C(C)(C)NC(=O)[C@@H](N)Cc1ccc(O)cc1)[C@@H](C)O)C(=O)N[C@@H](CO)C(=O)N[C@@H](CC(=O)O)C(=O)N[C@@H](Cc1ccc(O)cc1)C(=O)N[C@@H](CO)C(=O)N[C@H](C(=O)N[C@@](C)(CC(C)C)C(=O)N[C@@H](CC(C)C)C(=O)N[C@@H](CC(=O)O)C(=O)N[C@@H](CCCCN)C(=O)N[C@@H](CCCCNC(=O)COCCOCCNC(=O)COCCOCCNC(=O)CC[C@H](NC(=O)CCCCCCCCCCCCCCCCCCC(=O)O)C(=O)O)C(=O)N[C@@H](Cc1c[nH]cn1)C(=O)N[C@@H](CCC(N)=O)C(=O)NC(C)(C)C(=O)N[C@@H](CC(=O)O)C(=O)N[C@@H](Cc1ccccc1)C(=O)N[C@H](C(=O)N[C@@H](CCC(=O)O)C(=O)N[C@@](C)(Cc1ccc(O)cc1)C(=O)N[C@@H](CC(C)C)C(=O)N[C@@H](CC(C)C)C(=O)N[C@@H](CCC(=O)O)C(=O)NCC(=O)NCC(=O)N1CCC[C@H]1C(=O)N[C@@H](CO)C(=O)N[C@@H](CO)C(=O)NCC(=O)N[C@@H](C)C(=O)N1CCC[C@H]1C(=O)N1CCC[C@H]1C(=O)N1CCC[C@H]1C(=O)N[C@@H](CO)C(N)=O)C(C)C)[C@@H](C)CC [Example 91] (H-Y[Aib]EGTFISDYSI[αMeL]LDKK([AEEA-AEEA-γGlu-C20 diacid])HQ[Aib]DFVE[αMeY]LLEGGPSSGAPPPS-NH2),Ki,[1],37.4 nM
same,Ki,[2],0.122 nM
CC[C@H](C)[C@H](NC(=O)[C@H](CCCCN)NC(=O)[C@H](CC(=O)O)NC(=O)[C@H](CC(C)C)NC(=O)[C@](C)(CC(C)C)NC(=O)[C@@H](NC(=O)[C@H](CO)NC(=O)[C@H](Cc1ccc(O)cc1)NC(=O)[C@H](CC(=O)O)NC(=O)[C@H](CO)NC(=O)[C@@H](NC(=O)[C@H](Cc1ccccc1)NC(=O)[C@@H](NC(=O)CNC(=O)[C@H](CCC(=O)O)NC(=O)C(C)(C)NC(=O)[C@@H](N)Cc1ccc(O)cc1)[C@@H](C)O)[C@@H](C)CC)[C@@H](C)CC)C(=O)N[C@@H](Cc1c[nH]cn1)C(=O)N[C@@H](CCC(N)=O)C(=O)NC(C)(C)C(=O)N[C@@H](CC(=O)O)C(=O)N[C@@H](Cc1ccccc1)C(=O)N[C@H](C(=O)N[C@@H](CCC(=O)O)C(=O)N[C@@H](Cc1ccc(O)cc1)C(=O)N[C@@H](CCCCNC(=O)COCCOCCNC(=O)COCCOCCNC(=O)CC[C@H](NC(=O)CCCCCCCCCCCCCCCCCCC(=O)O)C(=O)O)C(=O)N[C@@H](CC(C)C)C(=O)N[C@@H](CCC(=O)O)C(=O)N[C@@H](CCC(N)=O)C(=O)NCC(=O)N1CCC[C@H]1C(=O)N[C@@H](CO)C(=O)N[C@@H](CO)C(=O)NCC(=O)N[C@@H](C)C(=O)N1CCC[C@H]1C(=O)N1CCC[C@H]1C(=O)N1CCC[C@H]1C(=O)N[C@@H](CO)C(N)=O)C(C)C [Example 92] (H-Y[Aib]EGTFISDYSI[αMeL]LDKIHQ[Aib]DFVEYK([AEEA-AEEA-γGlu-C20 diacid])LEQGPSSGAPPPS-NH2),Ki,[1],> 902 nM
same,Ki,[2],0.0331 nM
CC[C@H](C)[C@H](NC(=O)[C@H](CCCCN)NC(=O)[C@H](CC(=O)O)NC(=O)[C@H](CC(C)C)NC(=O)[C@H](CC(C)C)NC(=O)[C@@H](NC(=O)[C@H](CO)NC(=O)[C@H](Cc1ccc(O)cc1)NC(=O)[C@H](CC(=O)O)NC(=O)[C@H](CO)NC(=O)[C@@H](NC(=O)[C@H](Cc1ccccc1)NC(=O)[C@@H](NC(=O)CNC(=O)[C@H](CCC(=O)O)NC(=O)[C@@H](C)NC(=O)[C@@H](N)Cc1ccc(O)cc1)[C@@H](C)O)[C@@H](C)CC)[C@@H](C)CC)C(=O)N[C@@H](C)C(=O)N[C@@H](CCC(N)=O)C(=O)NC(C)(C)C(=O)N[C@@H](CC(=O)O)C(=O)N[C@@H](Cc1ccccc1)C(=O)N[C@H](C(=O)N[C@@H](CC(N)=O)C(=O)N[C@@H](Cc1c[nH]c2ccccc12)C(=O)N[C@@H](CCCCNC(=O)COCCOCCNC(=O)COCCOCCNC(=O)CC[C@H](NC(=O)CCCCCCCCCCCCCCCCC(=O)O)C(=O)O)C(=O)N[C@@H](CC(C)C)C(=O)N[C@@H](C)C(=O)N[C@@H](CCC(N)=O)C(=O)NCC(=O)N1CCC[C@H]1C(=O)N[C@@H](CO)C(=O)N[C@@H](CO)C(=O)NCC(=O)N[C@@H](C)C(=O)N1CCC[C@H]1C(=O)N1CCC[C@H]1C(=O)N1CCC[C@H]1C(=O)N[C@@H](CO)C(N)=O)C(C)C [Example 93] (H-Y[dA]EGTFISDYSILLDKIAQ[Aib]DFVNWK([AEEA-AEEA-γGlu-C18 diacid])LAQGPSSGAPPPS-NH2),Ki,[1],> 909 nM
same,Ki,[2],0.043 nM

# — patent US12723063B2, “GIPR-agonist compounds” (Eli Lilly and Company, priority 2019, dated 2026)
